Laboratory results published in ChEMBL document CHEMBL4507281, “Data for DCP probe BI-4394” (2021).

Experiments:
[1] = system: Tyrosine-protein kinase ABL1 (Homo sapiens), P00519 [F317I]; conditions: Compound concentration 100.0 nM
[2] = biological target: Calcium/calmodulin-dependent protein kinase type IV (Homo sapiens) (UniProt Q16566); conditions: Compound concentration 100.0 nM
[3] = biological target: Cyclin-dependent kinase 11A (Homo sapiens) (UniProt Q9UQ88); conditions: Compound concentration 100.0 nM
Sequence of Cyclin-dependent kinase 11A (Homo sapiens) (Q9UQ88 whole entry): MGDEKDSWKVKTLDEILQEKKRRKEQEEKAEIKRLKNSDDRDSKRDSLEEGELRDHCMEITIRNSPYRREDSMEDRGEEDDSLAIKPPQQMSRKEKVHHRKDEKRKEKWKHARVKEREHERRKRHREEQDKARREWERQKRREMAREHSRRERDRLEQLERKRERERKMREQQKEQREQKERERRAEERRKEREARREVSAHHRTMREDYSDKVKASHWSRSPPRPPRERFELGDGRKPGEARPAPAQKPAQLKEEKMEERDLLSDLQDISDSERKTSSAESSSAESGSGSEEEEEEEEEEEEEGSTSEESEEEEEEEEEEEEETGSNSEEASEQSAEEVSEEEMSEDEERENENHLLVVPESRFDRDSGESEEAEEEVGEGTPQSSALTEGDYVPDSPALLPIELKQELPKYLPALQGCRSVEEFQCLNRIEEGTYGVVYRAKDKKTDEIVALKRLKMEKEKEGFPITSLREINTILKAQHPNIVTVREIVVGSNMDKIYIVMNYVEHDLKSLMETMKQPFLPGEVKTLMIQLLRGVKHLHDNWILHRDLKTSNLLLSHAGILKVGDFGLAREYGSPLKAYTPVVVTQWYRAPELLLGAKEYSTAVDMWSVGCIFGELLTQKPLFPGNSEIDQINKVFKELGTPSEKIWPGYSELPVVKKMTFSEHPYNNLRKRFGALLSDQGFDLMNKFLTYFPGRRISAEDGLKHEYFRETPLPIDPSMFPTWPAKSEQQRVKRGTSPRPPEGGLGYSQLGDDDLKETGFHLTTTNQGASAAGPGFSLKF

[4] = biological target: Cyclin-dependent kinase 5 (Homo sapiens) (UniProt Q00535); conditions: Compound concentration 100.0 nM
Sequence of Cyclin-dependent kinase 5 (Homo sapiens) (Q00535 whole entry, looked up): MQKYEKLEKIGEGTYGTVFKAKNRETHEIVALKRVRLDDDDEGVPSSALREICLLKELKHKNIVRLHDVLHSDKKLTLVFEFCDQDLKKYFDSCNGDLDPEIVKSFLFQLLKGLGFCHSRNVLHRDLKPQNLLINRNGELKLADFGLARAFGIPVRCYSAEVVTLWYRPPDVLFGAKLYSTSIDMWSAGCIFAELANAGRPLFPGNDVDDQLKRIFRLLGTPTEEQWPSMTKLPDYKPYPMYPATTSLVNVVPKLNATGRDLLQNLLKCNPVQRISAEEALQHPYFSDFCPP

[5] = biological target: Cyclin-dependent kinase 7 (Homo sapiens) (UniProt P50613); conditions: Compound concentration 100.0 nM
[6] = biological target: Casein kinase I isoform epsilon (Homo sapiens) (UniProt P49674); conditions: Compound concentration 100.0 nM
[7] = biological target: Serine/threonine-protein kinase 17B (Homo sapiens) (UniProt O94768); conditions: Compound concentration 100.0 nM
[8] = biological target: Dual specificity tyrosine-phosphorylation-regulated kinase 1A (Homo sapiens) (UniProt Q13627); conditions: Compound concentration 100.0 nM
[9] = biological target: Ephrin type-A receptor 1 (Homo sapiens) (UniProt P21709); conditions: Compound concentration 100.0 nM
[10] = biological target: Fibroblast growth factor receptor 4 (Homo sapiens) (UniProt P22455); conditions: Compound concentration 100.0 nM
Sequence of Fibroblast growth factor receptor 4 (Homo sapiens) (P22455 22-802 limits assumed): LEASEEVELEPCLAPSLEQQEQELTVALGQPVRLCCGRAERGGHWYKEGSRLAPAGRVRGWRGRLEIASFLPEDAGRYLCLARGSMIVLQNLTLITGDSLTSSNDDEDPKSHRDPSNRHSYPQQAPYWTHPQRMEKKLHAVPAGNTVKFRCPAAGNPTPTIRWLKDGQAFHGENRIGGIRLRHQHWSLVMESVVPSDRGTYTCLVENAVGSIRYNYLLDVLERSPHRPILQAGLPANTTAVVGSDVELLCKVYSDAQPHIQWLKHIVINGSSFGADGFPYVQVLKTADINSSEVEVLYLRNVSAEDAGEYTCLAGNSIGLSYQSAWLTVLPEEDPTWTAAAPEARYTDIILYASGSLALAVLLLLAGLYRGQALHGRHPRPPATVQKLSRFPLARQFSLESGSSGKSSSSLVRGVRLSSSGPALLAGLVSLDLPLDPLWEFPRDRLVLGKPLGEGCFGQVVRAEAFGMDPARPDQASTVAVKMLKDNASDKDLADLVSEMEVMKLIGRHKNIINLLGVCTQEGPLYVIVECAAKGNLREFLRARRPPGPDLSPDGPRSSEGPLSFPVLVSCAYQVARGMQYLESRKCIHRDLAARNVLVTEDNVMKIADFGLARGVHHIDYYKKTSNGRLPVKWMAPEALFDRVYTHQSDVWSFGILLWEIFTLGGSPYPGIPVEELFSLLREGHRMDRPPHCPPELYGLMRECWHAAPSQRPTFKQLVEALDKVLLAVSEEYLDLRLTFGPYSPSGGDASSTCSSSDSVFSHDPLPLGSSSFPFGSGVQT

[11] = biological target: Mitogen-activated protein kinase 9 (Homo sapiens) (UniProt P45984); conditions: Compound concentration 100.0 nM
[12] = biological target: MAP kinase-activated protein kinase 5 (Homo sapiens) (UniProt Q8IW41); conditions: Compound concentration 100.0 nM
[13] = biological target: MAP/microtubule affinity-regulating kinase 3 (Homo sapiens) (UniProt P27448); conditions: Compound concentration 100.0 nM
[14] = biological target: Dual specificity mitogen-activated protein kinase kinase 3 (Homo sapiens) (UniProt P46734); conditions: Compound concentration 100.0 nM
[15] = biological target: Dual specificity mitogen-activated protein kinase kinase 4 (Homo sapiens) (UniProt P45985); conditions: Compound concentration 100.0 nM
[16] = biological target: Misshapen-like kinase 1 (Homo sapiens) (UniProt Q8N4C8); conditions: Compound concentration 100.0 nM
[17] = biological target: Dual specificity mitogen-activated protein kinase kinase 7 (Homo sapiens) (UniProt O14733); conditions: Compound concentration 100.0 nM
[18] = biological target: MAP kinase-interacting serine/threonine-protein kinase 2 (Homo sapiens) (UniProt Q9HBH9); conditions: Compound concentration 100.0 nM
Sequence of MAP kinase-interacting serine/threonine-protein kinase 2 (Homo sapiens) (Q9HBH9 whole entry, looked up): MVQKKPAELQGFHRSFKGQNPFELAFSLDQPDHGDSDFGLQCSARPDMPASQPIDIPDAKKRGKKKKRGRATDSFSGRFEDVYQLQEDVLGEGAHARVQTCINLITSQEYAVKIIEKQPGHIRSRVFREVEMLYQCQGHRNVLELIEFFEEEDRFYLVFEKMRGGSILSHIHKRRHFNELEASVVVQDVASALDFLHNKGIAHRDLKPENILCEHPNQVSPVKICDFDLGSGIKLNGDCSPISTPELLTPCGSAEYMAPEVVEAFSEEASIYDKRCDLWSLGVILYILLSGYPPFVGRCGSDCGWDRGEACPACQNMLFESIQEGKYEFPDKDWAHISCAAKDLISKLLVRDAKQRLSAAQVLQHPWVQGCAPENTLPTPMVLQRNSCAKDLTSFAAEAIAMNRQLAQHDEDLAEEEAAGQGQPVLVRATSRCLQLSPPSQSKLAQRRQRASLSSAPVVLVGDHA

[19] = biological target: Serine/threonine-protein kinase MRCK alpha (Homo sapiens) (UniProt Q5VT25); conditions: Compound concentration 100.0 nM
[20] = biological target: Serine/threonine-protein kinase 24 (Homo sapiens) (UniProt Q9Y6E0); conditions: Compound concentration 100.0 nM
Sequence of Serine/threonine-protein kinase 24 (Homo sapiens) (Q9Y6E0 whole entry, looked up): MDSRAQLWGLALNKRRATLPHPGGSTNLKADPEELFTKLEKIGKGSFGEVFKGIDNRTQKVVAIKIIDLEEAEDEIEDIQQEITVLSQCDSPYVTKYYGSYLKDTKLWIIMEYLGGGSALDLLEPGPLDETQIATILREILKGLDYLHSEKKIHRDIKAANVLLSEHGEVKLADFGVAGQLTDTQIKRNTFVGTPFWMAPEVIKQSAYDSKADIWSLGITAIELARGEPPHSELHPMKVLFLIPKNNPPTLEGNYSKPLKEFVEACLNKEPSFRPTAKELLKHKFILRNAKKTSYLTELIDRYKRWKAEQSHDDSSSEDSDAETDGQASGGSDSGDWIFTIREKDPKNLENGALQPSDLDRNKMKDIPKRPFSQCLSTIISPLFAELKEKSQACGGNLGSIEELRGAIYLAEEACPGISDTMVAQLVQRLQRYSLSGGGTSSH

[21] = biological target: Serine/threonine-protein kinase NLK (Homo sapiens) (UniProt Q9UBE8); conditions: Compound concentration 100.0 nM
[22] = biological target: Mitogen-activated protein kinase 12 (Homo sapiens) (UniProt P53778); conditions: Compound concentration 100.0 nM
Sequence of Mitogen-activated protein kinase 12 (Homo sapiens) (P53778 whole entry): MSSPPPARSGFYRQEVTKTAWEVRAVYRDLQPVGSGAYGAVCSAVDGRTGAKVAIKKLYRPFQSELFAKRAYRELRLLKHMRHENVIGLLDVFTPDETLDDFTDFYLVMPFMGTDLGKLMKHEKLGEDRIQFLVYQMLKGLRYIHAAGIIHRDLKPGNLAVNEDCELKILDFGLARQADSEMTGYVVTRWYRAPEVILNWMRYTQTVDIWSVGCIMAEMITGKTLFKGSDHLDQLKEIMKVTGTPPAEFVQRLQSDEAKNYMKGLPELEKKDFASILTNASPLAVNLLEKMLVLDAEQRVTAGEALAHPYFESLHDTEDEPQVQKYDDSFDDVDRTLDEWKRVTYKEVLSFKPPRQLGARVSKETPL

[23] = biological target: Serine/threonine-protein kinase PAK 4 (Homo sapiens) (UniProt O96013); conditions: Compound concentration 100.0 nM
[24] = biological target: Phosphatidylinositol 3-kinase C2 domain-containing subunit gamma (Homo sapiens) (UniProt O75747); conditions: Compound concentration 100.0 nM
[25] = biological target: Serine/threonine-protein kinase pim-1 (Homo sapiens) (UniProt P11309); conditions: Compound concentration 100.0 nM
[26] = biological target: Proto-oncogene tyrosine-protein kinase receptor Ret (Homo sapiens) (UniProt P07949); conditions: Compound concentration 100.0 nM
[27] = biological target: Receptor-interacting serine/threonine-protein kinase 4 (Homo sapiens) (UniProt P57078); conditions: Compound concentration 100.0 nM
[28] = biological target: Ribosomal protein S6 kinase alpha-1 (Homo sapiens) (UniProt Q15418); conditions: Compound concentration 100.0 nM
Sequence of Ribosomal protein S6 kinase alpha-1 (Homo sapiens) (Q15418 whole entry): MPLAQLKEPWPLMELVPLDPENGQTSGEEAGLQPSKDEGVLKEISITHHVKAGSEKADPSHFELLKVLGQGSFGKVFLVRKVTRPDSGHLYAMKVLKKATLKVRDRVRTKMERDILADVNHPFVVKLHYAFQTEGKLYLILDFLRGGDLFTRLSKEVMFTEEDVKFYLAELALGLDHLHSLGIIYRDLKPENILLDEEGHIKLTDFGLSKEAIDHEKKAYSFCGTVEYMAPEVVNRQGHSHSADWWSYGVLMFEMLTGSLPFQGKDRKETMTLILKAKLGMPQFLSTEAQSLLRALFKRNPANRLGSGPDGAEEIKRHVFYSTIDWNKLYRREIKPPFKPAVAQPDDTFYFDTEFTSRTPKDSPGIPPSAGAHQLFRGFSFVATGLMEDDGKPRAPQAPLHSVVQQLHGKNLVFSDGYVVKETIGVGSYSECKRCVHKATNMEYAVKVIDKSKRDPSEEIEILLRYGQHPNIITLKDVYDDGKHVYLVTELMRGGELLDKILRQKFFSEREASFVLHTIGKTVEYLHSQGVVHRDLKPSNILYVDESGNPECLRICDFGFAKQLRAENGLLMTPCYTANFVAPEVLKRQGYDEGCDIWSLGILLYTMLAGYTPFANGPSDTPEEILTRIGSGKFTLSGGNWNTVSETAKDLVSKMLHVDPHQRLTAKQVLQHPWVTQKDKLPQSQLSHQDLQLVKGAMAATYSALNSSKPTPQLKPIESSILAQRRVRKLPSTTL

[29] = biological target: STE20/SPS1-related proline-alanine-rich protein kinase (Homo sapiens) (UniProt Q9UEW8); conditions: Compound concentration 100.0 nM
[30] = biological target: Serine/threonine-protein kinase tousled-like 2 (Homo sapiens) (UniProt Q86UE8); conditions: Compound concentration 100.0 nM
[31] = biological target: Serine/threonine-protein kinase 32C (Homo sapiens) (UniProt Q86UX6); conditions: Compound concentration 100.0 nM
[32] = biological target: T1, Tyrosine-protein kinase ZAP-70 (Homo sapiens) (UniProt P43403); conditions: Compound concentration 100.0 nM
T1 sequence (whole entry): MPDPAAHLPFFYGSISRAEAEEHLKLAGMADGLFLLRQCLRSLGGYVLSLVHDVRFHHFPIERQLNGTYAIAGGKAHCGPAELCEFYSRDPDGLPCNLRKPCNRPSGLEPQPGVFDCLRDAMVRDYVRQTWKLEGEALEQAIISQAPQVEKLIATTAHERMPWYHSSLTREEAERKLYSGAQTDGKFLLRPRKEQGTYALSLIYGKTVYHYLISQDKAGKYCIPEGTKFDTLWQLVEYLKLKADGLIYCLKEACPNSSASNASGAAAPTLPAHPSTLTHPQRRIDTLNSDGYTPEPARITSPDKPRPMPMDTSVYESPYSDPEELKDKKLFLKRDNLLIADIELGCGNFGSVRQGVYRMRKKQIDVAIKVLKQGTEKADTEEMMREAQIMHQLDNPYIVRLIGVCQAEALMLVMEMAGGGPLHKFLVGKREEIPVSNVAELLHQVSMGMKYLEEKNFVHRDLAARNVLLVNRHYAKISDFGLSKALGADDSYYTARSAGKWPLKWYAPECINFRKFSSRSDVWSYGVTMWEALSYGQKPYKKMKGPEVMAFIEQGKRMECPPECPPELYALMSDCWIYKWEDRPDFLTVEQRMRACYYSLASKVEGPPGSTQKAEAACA

[33] = biological target: 5-hydroxytryptamine receptor 1D (Homo sapiens) (UniProt P28221); conditions: Compound concentration 10.0 uM
[34] = biological target: 5-hydroxytryptamine receptor 2A (Homo sapiens) (UniProt P28223); conditions: Compound concentration 10.0 uM
[35] = biological target: 5-hydroxytryptamine receptor 3A (Homo sapiens) (UniProt P46098); conditions: Compound concentration 10.0 uM
Sequence of 5-hydroxytryptamine receptor 3A (Homo sapiens) (P46098 whole entry): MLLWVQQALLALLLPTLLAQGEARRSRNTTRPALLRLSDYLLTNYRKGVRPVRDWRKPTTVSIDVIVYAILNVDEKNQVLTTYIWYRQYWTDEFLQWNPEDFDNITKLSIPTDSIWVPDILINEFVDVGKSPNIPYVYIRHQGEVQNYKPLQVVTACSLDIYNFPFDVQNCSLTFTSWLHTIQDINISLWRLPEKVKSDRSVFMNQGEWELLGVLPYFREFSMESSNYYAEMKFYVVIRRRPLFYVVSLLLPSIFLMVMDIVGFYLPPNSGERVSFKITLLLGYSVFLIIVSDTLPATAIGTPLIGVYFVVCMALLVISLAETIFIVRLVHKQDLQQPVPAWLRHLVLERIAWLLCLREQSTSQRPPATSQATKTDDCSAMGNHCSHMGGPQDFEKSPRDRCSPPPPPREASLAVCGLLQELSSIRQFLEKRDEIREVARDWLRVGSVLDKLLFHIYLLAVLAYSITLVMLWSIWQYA

[36] = biological target: Kappa-type opioid receptor (Homo sapiens) (UniProt P41145); conditions: Compound concentration 10.0 uM
[37] = biological target: Alpha-2C adrenergic receptor (Homo sapiens) (UniProt P18825); conditions: Compound concentration 10.0 uM

Sequence of Calcium/calmodulin-dependent protein kinase type IV (Homo sapiens) (Q16566 whole entry): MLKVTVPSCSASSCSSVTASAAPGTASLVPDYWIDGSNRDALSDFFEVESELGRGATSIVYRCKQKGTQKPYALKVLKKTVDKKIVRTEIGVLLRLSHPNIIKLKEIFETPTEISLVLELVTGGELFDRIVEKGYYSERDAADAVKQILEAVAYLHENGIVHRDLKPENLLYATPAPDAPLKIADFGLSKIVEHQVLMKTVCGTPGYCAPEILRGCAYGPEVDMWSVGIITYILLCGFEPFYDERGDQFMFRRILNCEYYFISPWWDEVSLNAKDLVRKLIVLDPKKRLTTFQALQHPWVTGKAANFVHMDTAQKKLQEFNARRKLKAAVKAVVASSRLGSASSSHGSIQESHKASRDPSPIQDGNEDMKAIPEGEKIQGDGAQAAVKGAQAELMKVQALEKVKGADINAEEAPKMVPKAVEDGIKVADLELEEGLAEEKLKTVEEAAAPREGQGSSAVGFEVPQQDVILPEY

Cn1nc(C(=O)NCc2ccc(C(=O)O)cc2)cc1-c1ccc2[nH]ccc2c1 [BI 4395]
inactive: residual activity [1] 68% | residual activity [2] 92% | residual activity [3] 96% | residual activity [4] 90% | residual activity [5] 100% | residual activity [6] 80% | residual activity [7] 91% | residual activity [8] 98% | residual activity [9] 95% | residual activity [10] 100% | residual activity [11] 60% | residual activity [12] 89% | residual activity [13] 81% | residual activity [14] 93% | residual activity [15] 79% | residual activity [16] 95% | residual activity [17] 95% | residual activity [18] 96% | residual activity [19] 79% | residual activity [20] 97% | residual activity [21] 100% | residual activity [22] 90% | residual activity [23] 86% | residual activity [24] 100% | residual activity [25] 91% | residual activity [26] 83% | residual activity [27] 68% | residual activity [28] 95% | residual activity [29] 90% | residual activity [30] 89% | residual activity [31] 100% | residual activity [32] 82% | inhibition [33] 10.1% | inhibition [34] 23.6% | inhibition [35] 23.5% | inhibition [36] 16.8% | inhibition [37] -7.92%

CCOC(=O)c1cc2cc(-c3cc(C(=O)NCc4ccc(C(=O)O)cc4)nn3C)ccc2[nH]1 [BI 4394]
inactive: residual activity [1] 80% | residual activity [2] 95% | residual activity [3] 100% | residual activity [4] 94% | residual activity [5] 76% | residual activity [6] 100% | residual activity [7] 100% | residual activity [8] 90% | residual activity [9] 100% | residual activity [10] 68% | residual activity [11] 96% | residual activity [12] 92% | residual activity [13] 93% | residual activity [14] 100% | residual activity [15] 93% | residual activity [16] 94% | residual activity [17] 97% | residual activity [18] 92% | residual activity [19] 100% | residual activity [20] 92% | residual activity [21] 86% | residual activity [22] 77% | residual activity [23] 100% | residual activity [24] 100% | residual activity [25] 95% | residual activity [26] 87% | residual activity [27] 82% | residual activity [28] 84% | residual activity [29] 85% | residual activity [30] 93% | residual activity [31] 100% | residual activity [32] 98% | inhibition [33] 3.64% | inhibition [34] 19.1% | inhibition [35] 34.8% | inhibition [36] 27.2% | inhibition [37] -7.04%
